Earlier results as cited in patent publication US20240196931A1, “BOTANICAL SUPPLEMENT AND METHOD FOR PREVENTING DISEASES, PROMOTING GROWTH AND SURVIVAL OF AN ANIMAL BY USING THE SAME” (ACADEMIA SINICA, priority 2022, published 2024).

Columns and labels:
[1] = test system: sepsis; conditions: sepsis induced by endotoxin or cecal ligation puncture
[2] = test system: melanoma and breast cancer cell metastasis; conditions: in vitro and in xenograft or allograft mouse tumor models

In the case of `CC/C=C\C/C=C\C/C=C\CCCCCCCC(=O)OC[C@H](CO[C@@H]1O[C@H](CO)[C@H](O)[C@H](O)[C@H]1O)OC(=O)CCCCCCC/C=C\C/C=C\C/C=C\CC` [dLGG, 1,2-di-O-α-linolenoyl-3-O-β-galactopyranosyl-sn-glycerol], the “Effect against sepsis in mouse” value [1] is given as “preventive and therapeutic effect” and the “Effect on melanoma and breast cancer cell metastasis” value [2] is given as “suppressive effects”.
